Results: ChEMBL document CHEMBL4334431, “Gramicidin S-inspired antimicrobial cyclodextrin to disrupt gram-negative and gram-positive bacterial membranes” (Medchemcomm, 2019)
Converted amounts (≈) assume the structure as drawn.

What was measured:
[1] = test system: Erythrocyte; assay: Haemolytic activity in rabbit RBCs at 10 times MIC; type: ADME, cell-based, Oryctolagus cuniculus
[2] = test system: Staphylococcus aureus; assay: Antibacterial activity against Staphylococcus aureus FDA 209P assessed as bacterial growth inhibition after 20 hrs by liquid microdilution method; type: functional
[3] = test system: Bacillus subtilis; assay: Antibacterial activity against Bacillus subtilis 168 assessed as bacterial growth inhibition after 20 hrs by liquid microdilution method; type: functional; settings: Bacillus subtilis, 168, 20 h
[4] = test system: Escherichia coli; assay: Antibacterial activity against Escherichia coli K12 W3110 assessed as bacterial growth inhibition after 20 hrs by liquid microdilution method; type: functional; settings: K-12 substr. W3110, 20 h
[5] = test system: Salmonella typhimurium; assay: Antibacterial activity against Salmonella typhimurium LT2 assessed as bacterial growth inhibition after 20 hrs by liquid microdilution method; type: functional, Salmonella enterica subsp. enterica serovar Typhimurium; settings: Salmonella enterica, LT2, 20 h
[6] = test system: Pseudomonas aeruginosa; assay: Antibacterial activity against Pseudomonas aeruginosa PAO1 assessed as bacterial growth inhibition after 20 hrs by liquid microdilution method; type: functional; settings: PAO1, 20 h
[7] = Haemolytic activity in rabbit RBCs at 50 uM relative to control; type: ADME, cell-based, Oryctolagus cuniculus, Erythrocyte; settings: rabbit red blood cells (erythrocytes), read-out: Activity
[8] = Partition coefficient, log P of compound; type: physicochemical; settings: octanol/water
[9] = test system: Escherichia coli; assay: Antimicrobial activity against ESBL-producing Escherichia coli assessed as bacterial growth inhibition after 20 hrs by liquid microdilution method; type: functional
[10] = test system: Escherichia coli; assay: Antimicrobial activity against carbapenem-resistant Escherichia coli assessed as bacterial growth inhibition after 20 hrs by liquid microdilution method; type: functional
[11] = test system: Pseudomonas aeruginosa; assay: Antibacterial activity against carbapenem-reistant Pseudomonas aeruginosa PAO1 assessed as bacterial growth inhibition after 20 hrs by liquid microdilution method; type: functional; settings: PAO1, 20 h
[12] = test system: Staphylococcus aureus; assay: Antibacterial activity against Staphylococcus aureus FDA 209P at sub-MIC treated over 11 serial passages by resistant development assay; type: functional
[13] = test system: Escherichia coli; assay: Antimicrobial activity against […] at sub-MIC treated by resistant development assay; type: functional; settings: K-12 substr. W3110

Structure (SMILES): CCC(=O)O[C@@H]1[C@@H](OC(=O)CC)[C@H]2O[C@H]3[C@H](OC(=O)CC)[C@@H](OC(=O)CC)[C@@H](O[C@H]4[C@H](OC(=O)CC)[C@@H](OC(=O)CC)[C@@H](O[C@H]5[C@H](OC(=O)CC)[C@@H](OC(=O)CC)[C@@H](O[C@H]6[C@H](OC(=O)CC)[C@@H](OC(=O)CC)[C@@H](O[C@H]7[C@H](OC(=O)CC)[C@@H](OC(=O)CC)[C@@H](O[C@@H]1[C@@H](Cn1cc(CN)nn1)O2)O[C@@H]7Cn1cc(CN)nn1)O[C@@H]6Cn1cc(CN)nn1)O[C@@H]5Cn1cc(CN)nn1)O[C@@H]4Cn1cc(CN)nn1)O[C@@H]3Cn1cc(CN)nn1
- Activity [1]: Non-Toxic
- MIC [2]: 6 µM (≈ 12.8 µg/mL)
- MIC [3]: 3 µM (≈ 6.38 µg/mL)
- MIC [4]: 3 µM (≈ 6.38 µg/mL)
- MIC [5]: 6 µM (≈ 12.8 µg/mL)
- MIC [6]: 3 µM (≈ 6.38 µg/mL)
- hemolysis at 50 µM [7]: 3%
- logP [8]: -0.89
- MIC [9]: 5 µM (≈ 10.6 µg/mL)
- MIC [10]: 5 µM (≈ 10.6 µg/mL)
- MIC [11]: 5 µM (≈ 10.6 µg/mL)
- MIC [12]: 6 µM (≈ 12.8 µg/mL)
- MIC [13]: 3 to 6 µM (≈ 6.38 to 12.8 µg/mL)
